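All cell lines were grown in 96-well plates and treated with compound for 48 hours. The concentration for 50% growth inhibition is given as GI50.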 The source made the active and inactive calls. Cut-off read from the data, not from the text of the source: active = GI50 up to about 1.1 µM and inactive = higher.
Experiments:
Experiment in all cases: NCI tumour cell line growth inhibition, 48 h
MCF7 = test system: MCF7
SR = test system: SR
SNB-78 = test system: SNB-78
DLD-1 = test system: DLD-1
RXF 631 = test system: RXF 631
HOP-18 = test system: HOP-18
XF498 = test system: XF498
DMS-114 = test system: DMS-114
LXFL 529 = test system: LXFL 529

Row | Structure (SMILES) | GI50 (MCF7) | GI50 (SR) | GI50 (SNB-78) | GI50 (DLD-1) | GI50 (RXF 631) | GI50 (HOP-18) | GI50 (XF498) | GI50 (DMS-114) | GI50 (LXFL 529)
1 | CCOc1ncn(-c2ccc(NC(=S)Nc3ncccn3)cc2)n1 | 32.7 µM (inactive) | 24 µM (inactive) |  |  |  |  |  |  | 
2 | CCN1c2ccccc2-n2c(C)nnc2-c2c(-c3ccccc3)n[nH]c21 | > 10 µM (inactive) | 13 µM (inactive) |  |  |  |  |  |  | 
3 | CCOC(=O)CCN1C(=O)c2c(NC(=O)C(=O)O)cccc2S1(=O)=O | > 100 µM (inactive) | > 100 µM (inactive) |  |  |  |  |  |  | 
4 | CCOC(=O)Cc1cc(OC)c(OC)cc1/C(Cl)=C(\C=O)c1ccc(OC)c(OC)c1 |  |  | 22.3 µM (inactive) | 16.3 µM (inactive) | 20.3 µM (inactive) | 28.7 µM (inactive) | 20 µM (inactive) | 18.2 µM (inactive) | 
5 | C=C1C(=O)OC2C[C@@]3(C)CCCC(=C)C3CC12 (stereo not given in full) |  | > 100 µM (inactive) | 3.27 µM (inactive) | 3.49 µM (inactive) |  | 17.5 µM (inactive) | 3.69 µM (inactive) | 16.2 µM (inactive) | 3.2 µM (inactive)
6 | CC1C2CC=CC(=O)[C@@]2(C)CCC12OCCO2 (stereo not given in full) |  | > 100 µM (inactive) | > 100 µM (inactive) | > 100 µM (inactive) |  |  |  | > 100 µM (inactive) | > 100 µM (inactive)
7 | CCc1c(-c2ccc(OC)cc2)oc(OC)c(C)c1=O | 79.1 µM (inactive) |  |  |  |  |  |  |  | 
8 | Cc1ccc(Nc2nc3ccccc3c(=O)n2N)cc1 | > 100 µM (inactive) | > 100 µM (inactive) |  |  |  |  |  |  | 
9 | CCP(=O)(CC)C(Cl)(Cl)C(O)C(Cl)(Cl)Cl (stereo not given) | > 100 µM (inactive) | > 100 µM (inactive) |  |  |  |  |  |  | 
10 | COc1ccc(-c2cc(O)c3c(C)ccnc3n2)cc1 | 2.03 µM (inactive) |  |  |  |  |  |  |  | 
11 | Cc1nc(Cl)c(C)c(Cl)n1 | > 84.5 µM (inactive) | 0.254 µM (active) |  |  |  |  |  |  | 
12 | CC1=Nc2c(N)nc(N)nc2N(C)C1 | > 100 µM (inactive) |  |  |  |  |  |  |  | 
13 | C/C(=C/CC[C@](C)(OC1OC(CO)C(O)C(O)C1O)[C@H]1CC[C@]2(C)[C@@H]1CC[C@@H]1[C@@]3(C)CC[C@H](O)C(C)(C)[C@@H]3C[C@H](O)[C@]12CO)CO (stereo not given in full) | > 100 µM (inactive) | > 100 µM (inactive) |  |  |  |  |  |  | 
14 | O=C(N/C(=C\c1ccccc1[N+](=O)[O-])c1nc2ccccc2[nH]1)c1ccccc1 |  | 37.6 µM (inactive) | 92.7 µM (inactive) | 93.5 µM (inactive) | > 100 µM (inactive) |  | > 100 µM (inactive) |  | 59.4 µM (inactive)
15 | O=C(CCN1CCOCC1)/C(=C/c1ccccc1)c1ccccc1 | 4.28 µM (inactive) |  | 5.51 µM (inactive) | 1.89 µM (inactive) |  | 16.7 µM (inactive) | 6.5 µM (inactive) | 3.06 µM (inactive) | 
16 | CC1C(=O)C(C)C(c2ccco2)N(N=O)C1c1ccco1 (stereo not given) | > 100 µM (inactive) |  | > 100 µM (inactive) | > 100 µM (inactive) |  | > 67.1 µM (inactive) | < 0.01 µM (active) |  | 
17 | CC1=C2C(O)C(C(C)C(=O)N(C)C)CCC2(C)C=CC1=O (stereo not given) | > 100 µM (inactive) |  | > 100 µM (inactive) | > 100 µM (inactive) |  | > 100 µM (inactive) | > 100 µM (inactive) | > 100 µM (inactive) | 
18 | CC(C)c1ccc(/C=C2\CSCC3=C2N=C2SCC(=O)N2C3c2ccc(C(C)C)cc2)cc1 (stereo not given) | > 100 µM (inactive) | 77.4 µM (inactive) |  |  |  |  |  |  | 
19 | CC(=O)c1c(-c2ccco2)c(C#N)c(=S)n(C2OC(CO)C(O)C(O)C2O)c1-c1ccccc1 (stereo not given) | 90.2 µM (inactive) | 68.7 µM (inactive) |  |  |  |  |  |  | 
20 | CC(Sc1ccccc1)C(CO)(CO)[N+](=O)[O-] (stereo not given) |  | 2.34 µM (inactive) | 22.3 µM (inactive) | 14.3 µM (inactive) |  | 21.9 µM (inactive) |  | 17.2 µM (inactive) | 13.7 µM (inactive)
21 | OC(c1cc2ccccc2[nH]1)C(O)(c1cc2ccccc2[nH]1)c1cc2ccccc2[nH]1 (stereo not given) |  | 7.69 µM (inactive) |  | 11 µM (inactive) | 17.4 µM (inactive) |  |  | 7.31 µM (inactive) | 10 µM (inactive)
22 | CC1=N/C(=C\c2ccc(N)cc2)C(=O)N1Nc1nnc(NN2C(=O)/C(=C/c3ccc(N)cc3)N=C2C)c2ccccc12 |  | 30.1 µM (inactive) |  | > 100 µM (inactive) |  | 27.1 µM (inactive) |  |  | 36.3 µM (inactive)
23 | CCOC(=O)NC(Nc1ncccn1)(C(F)(F)F)C(F)(F)F | > 100 µM (inactive) | > 100 µM (inactive) |  |  |  |  |  |  | 
24 | O=c1c2cc(O)c(O)cc2oc2cc(O)c(C3OC(CO)C(O)C(O)C3O)c(O)c12 (stereo not given) | > 100 µM (inactive) | > 100 µM (inactive) |  |  |  |  |  |  | 
25 | O=C(Nc1ccccc1C(=O)NCCCO)/C(=C/c1ccccc1O)NC(=O)c1ccccc1 | 5.36 µM (inactive) | > 100 µM (inactive) |  |  |  |  |  |  | 
26 | O=C1O/C(=C\c2ccc(O)c(Br)c2)C(c2ccc(O)c(Cl)c2)=C1Br | 16.7 µM (inactive) | 5.86 µM (inactive) |  |  |  |  |  |  | 
27 | Cc1nc(O)nc(O)c1/C=C/C(=O)O | > 1000 µM (inactive) |  | > 1000 µM (inactive) | > 1000 µM (inactive) |  | > 1000 µM (inactive) | > 1000 µM (inactive) | > 1000 µM (inactive) | 
28 | CCC1C(C#N)=C(O)NC(O)=C1C#N |  |  | > 100 µM (inactive) | > 100 µM (inactive) | > 100 µM (inactive) | > 100 µM (inactive) | > 100 µM (inactive) | > 100 µM (inactive) | > 100 µM (inactive)
29 | O=C1c2cccc(O)c2C(=O)c2c(O)cc(CO)cc21 [ALOE-EMODIN] |  | 32.9 µM (inactive) | > 100 µM (inactive) | 32.5 µM (inactive) | 67.5 µM (inactive) | > 100 µM (inactive) | > 100 µM (inactive) | 28.2 µM (inactive) | 56 µM (inactive)
30 | Cc1cc(NC(=S)Nc2ccccc2)c(NC(=S)Nc2ccccc2)cc1C | 26.6 µM (inactive) |  |  | 20.4 µM (inactive) |  | 43.2 µM (inactive) | 16.4 µM (inactive) |  | 

Source: ChEMBL document CHEMBL1201862, “PubChem BioAssay data set” (2004)
